Test system: 8XTBD luciferase reporter (YAP reporter) in HEK293T cells
Assay: YAP Reporter Assay
Assay type: cell-based
Details: Homo sapiens, HEK-293T; HEK293T cells stably transfected with 8XTBD luciferase reporter and pRLTK; 24-hr incubation; top concentration 3 μM; read-out: Firefly Luciferase IC50
Method in brief: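 Dual-luciferase read-out after 24 h compound exposure at 37° C, 5% CO2; IC50 and maximum inhibition given separately for 8XTBD-firefly and TK-renilla signals. Stable HEK293T reporter cells, 3×10^3/well, received 10-point 1:3 series starting 3 μM final, in quadruplicate.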

Cn1cc(-c2ccc(C(F)(F)F)cc2)c2ccc(C(=O)O)cc2c1=O [Compound 337, 2-methyl-1-oxo-4-[4-(trifluoromethyl)phenyl]isoquinoline-7-carboxylic Acid]
IC50: 100 to 1000 nM

Reference: patent US11866431B2, “Bicyclic compounds” (Vivace Therapeutics, Inc., priority 2018, dated 2024)
